Measured values: patent US6635634B2, “Propanolamine derivatives” (Fujisawa Pharmaceutical Co., Ltd., priority 1998, dated 2003)

Columns and labels:
anesthetized rat [1] = test: Effect on cystometrogram in anesthetized rat (Test 2); type: in vivo; conditions: for bladder capacity (relative % of before value): 0.01 mg/kg intravenously, N = 5
Excerpt: Effect on Cystometrogram in Anesthetized Rat Male S.D. rats, aged 7-9 weeks, were anesthetized with urethane (1.2 g/kg, sc) and supine on a board. After a midline incision in the abdomen, the bladder was exposed. Polyethylene catheters, which were used to measure the intravesical pressure and to infuse saline, were inserted into the bladder through a small incision at the apex of the bladder dome. The bladder catheters were connected to an infusion pump and pressure transducer respectively. Saline was infused a rate of 5.0 ml/hr for 1 hour. Cystometrography was performed at 15 minutes intervals for 1 hour. The bladder capacity (volume) was calculated from the time required to fill the bladder. The test compound was administered intravenously via femoral vein.

anesthetized dog = test: Effect on the increase in intravesical pressure induced by carbachol in anesthetized dog (Test 1); type: in vivo; conditions: for Increase in intravesical pressure (mmHg): 0.01 mg/kg intravenously 5 minutes before carbachol (1.8 μg/kg); for effect on the increase in intravesical pressure induced by carbachol (in words): anesthetized dog, 0.01 mg/kg intravenously
Protocol: Effect on the increase in intravesical pressure induced by carbachol in anesthetized dog
Female Beagle dogs weighing 8.0-15.0 kg were fasted for 24 hours and maintained under halothane anesthesia. A 12F Foley catheter was lubricated with water soluble jelly, inserted into the urethral orifice and advanced approximately 10 cm until the balloon tip was placed well inside the bladder. The balloon was then inflated with 5 ml of room air and catheter slowly withdrawn just part the first resistance that is felt at the bladder neck. Urine was completely drained out throught the catheter, and 30 ml of biological saline was infused. The catheter was connected to pressure transducer, and intravesical pressure was continuously recorded. The test compound was injected intravenously at 5 minutes before the administration of carbachol (1.8 μg/kg).
According to a similar manner to that of Test 1 described before, the effects of the present compounds on the intravesical pressure were evaluated.

anesthetized rat [2] = test: Effect on rhythmic contraction of bladder in anesthetized rat (Test 3); type: in vivo; conditions: dose of 0.1 mg/kg intravenously
Excerpt: Effect on Rhythmic Contraction of Bladder in Anesthetized Rat
Male S.D. rats, aged 7-8 weeks, were anesthetized with urethane (1.2 g/kg, ip) and supine on a board. After a midline incision in the abdomen, the bladder was exposed. Balloon catheter, which was used to measure the intravesical pressure, was inserted into the bladder through a small incision at the apex of the bladder dome. The balloon was then inflated with distilled water and the balloon port of the catheter was connected to pressure transducer. Rhythmic contraction of bladder induced by increase intravesical pressure to 10 mmHg. The test compound was administered intravenously via femoral vein.

Q: What does the source list for CCOC(=O)COc1ccc2c(c1)C[C@@H](NC[C@H](O)c1cccc(Cl)c1)CC2.Cl [compound (4), 2(S)-[ (7-Ethoxycarbonylmethoxy-1,2,3,4-tetrahydro-naphthalen-2-yl)amino]-1(R)-(3-chlorophenyl)ethanol hydrochloride]?
A: bladder capacity (relative % of before value) (anesthetized rat [1]; time 0-15 minutes, vehicle 128): 152%; bladder capacity (relative % of before value) (anesthetized rat [1]; time 15-30 minutes, vehicle 111): 146%; bladder capacity (relative % of before value) (anesthetized rat [1]; time 30-45 minutes, vehicle 114): 143%; bladder capacity (relative % of before value) (anesthetized rat [1]; time 45-60 minutes, vehicle 104): 151%; effect on bladder capacity (in words) (anesthetized rat [1]; dose of 0.01 mg/kg intravenously): increased in bladder capacity

Q: Which “ED50 (effect on the intravesical pressure)” value (anesthetized dog; similar manner to Test 1, anesthetized dog) does the source give for “N-butyl-2-[8-[[(2S)-2-hydroxy-3-[4-hydroxy-3-methanesulfonylamino]phenoxypropyl]amino]-6,7,8,9-tetrahydro-5H-benzocyclohepten-2-yloxy]acetamide hydrochloride [Example 155]” here?
A: 0.0108 mg/kg

Q: What does the source list for CS(=O)(=O)Nc1cc(C(O)CNCCOc2ccc3c(c2)[nH]c2ccccc23)ccc1O.Cl (stereo not drawn) [Test Compound (3), N-[5-[2-[2-(9H-Carbazol-2-yloxy)ethylamino]-1-hydroxyethyl]-2-hydroxyphenyl]methanesulfonamide hydrochloride]?
A: Increase in intravesical pressure (mmHg) (anesthetized dog; Control 5.0 ± 0.5, N = 3, P<0.01 vs Control): 1.7 ± 0.6 mmHg; effect on the increase in intravesical pressure induced by carbachol (in words) (anesthetized dog): inhibited the increase in intravesical pressure induced by carbachol

Q: For Cl.Oc1cc2c(cc1Cl)CC(N(Cc1ccccc1)C[C@H](O)COc1ccccc1)CCC2 (stereo partly drawn), which melting point is on record?
A: 94 to 99 °C (dec.)

Q: For COc1ccc(C(Cc2ccccc2)NC[C@H](O)c2ccc(O)c(NS(C)(=O)=O)c2)cc1OC (stereo partly drawn) [Test Compound (1), N-[5-[2-[l-(3,4-Dimethoxyphenyl)-2-phenylethylamino]-1(R)-hydroxyethyl]-2-hydroxyphenyl]methanesulfonamide], which “Increase in intravesical pressure (mmHg)” value (anesthetized dog; Control 5.0 ± 0.9, N = 3, P<0.01 vs Control) is on record?
A: 1.8 ± 0.3 mmHg

Q: And the “effect on the increase in intravesical pressure induced by carbachol (in words)” value (anesthetized dog)?
A: inhibited the increase in intravesical pressure induced by carbachol

Q: For Cl.O=c1[nH]c2cccc(OCC(O)CNC3CCCc4cc(O)ccc4C3)c2[nH]1 (stereo not drawn), which melting point is on record?
A: 100.5 °C (dec.)

Q: Which “Increase in intravesical pressure (mmHg)” value (anesthetized dog; Control 5.0 ± 1.2, N = 4, P<0.05 vs Control) does the source give for O=c1n(CCCC2CCCC2)nnn1-c1ccc(S(=O)(=O)Nc2ccc(CCNC[C@H](O)c3cccnc3)cc2)cc1 [Test Compound (2), N-[4-[2-[2(R)-Hydroxy-2-(pyridin-3-yl)ethylamino]ethyl]-phenyl]-4-[4-(3-cyclopentylpropyl)-5-tetrazolon-1-yl]-benzenesulfonamide] here?
A: 2.3 ± 1.5 mmHg

Q: And the “effect on the increase in intravesical pressure induced by carbachol (in words)” value (anesthetized dog)?
A: inhibited the increase in intravesical pressure induced by carbachol

Q: Which melting point does the source give for O=c1[nH]c2cccc(OCC(O)CN(Cc3ccccc3)C3CCCc4cc(O)ccc4C3)c2[nH]1 (stereo not drawn) [Example 11, 1-[N-benzyl-N-(6,7,8,9-tetrahydro-2-hydroxy-5H-benzocyclohepten-6-yl)amino]-3-(1,3-dihydro-2-benzoimidazolon-4-yloxy)-2-propanol] here?
A: 111 to 133 °C (dec.)

Q: For Cl.Oc1ccc2c(c1)CCCC(NC[C@H](O)COc1ccccc1)C2 (stereo partly drawn), which melting point is on record?
A: 53.5 °C (dec.)

Q: For COC(=O)COc1ccc(C[C@@H](C)NC[C@H](O)c2cccc(Cl)c2)cc1 [compound (5), Methyl 4-[2(R)-[2-(3-chlorophenyl)-2(R)-hydroxyethyl-amino]propyl]phenoxyacetate], which “effect on contractile force of bladder (in words)” value (anesthetized rat [2]) is on record?
A: decreased in contractile force of bladder

Q: With Cl.Oc1cccc2c1CCCC(NC[C@H](O)COc1ccccc1)C2 (stereo partly drawn) as the molecule, how does the melting point read?
A: 73 to 84 °C (dec.)
